Measurements from patent US20250313533A1, “QUINOLINE CARBOXYLIC ACID ESTER COMPOUND AND PREPARATION METHOD AND USE THEREOF” (priority 2019, published 2025).

Experiments:
[1] = tested on: pathogenic bacteria causing black shank in potatoes; assay: In vitro bactericidal activity, black shank in potatoes; format: cell-based; conditions: read-out: inhibitory rate; for inhibition at 1 ppm: dosage 1 ppm; for inhibition at 5 ppm: dosage 5 ppm
Procedure: (§1) Under aseptic conditions, equal amounts of NB culture medium were added to test tubes, and fixed amounts of the sample solutions were pipetted into the above test tubes in an ascending order of concentrations, respectively. The mixtures were well mixed and added with equal amounts of a bacterial suspension in log phase.
(§2) Each step of the procedure was repeated 4 times. After mixing, the mixture samples were incubated in the dark in a shaking incubator at 25° C. The OD values were measured when the bacteria were in log phase.

cucumber seedlings = assay: Safety for plant growth after application; format: in vivo; conditions: dosage 200 ppm
Text: Taking indoor potted cucumber seedlings as an example, the influence of the compound disclosed herein on growth rate of plant height, chlorophyll content, leaf area, etc. of crops was mainly evaluated.
The results of safety and health-care effect of the compounds of the present disclosure on cucumber seedlings are shown in the following table 1: […]

[2] = tested on: pathogenic bacteria causing bacterial wilt in tobacco; assay: whole plant or invertebrate; format: cell-based, ralstonia; conditions: read-out: inhibitory rate
black shank in potatoes = assay: Living crops in vivo protective activity, potatoes (root irrigation); conditions: Solanum tuberosum, read-out: efficacy against black shank in potatoes; for pest or weed control at 5 ppm: dosage 5 ppm; for pest or weed control at 10 ppm: dosage 10 ppm
Procedure: Root irrigation was carried out on the potatoes for tests according to the designed concentration of the agents. The dosage for each plant was 200 mL and was kept consistent (also for the control). The black shank bacteria were inoculated on the second day after the application. The results were investigated according to the disease condition.

[3] = tested on: pathogenic bacteria causing bacterial wilt in cassava; assay: organism not typed; format: cell-based; conditions: read-out: inhibitory rate
[4] = tested on: pathogenic bacteria causing fire blight in pears; assay: In vitro bactericidal activity, fire blight in pears; format: cell-based, erwinia; conditions: Erwinia, read-out: inhibitory rate; for inhibition at 1 ppm: dosage 1 ppm; for inhibition at 5 ppm: dosage 5 ppm
Procedure: as §1, §2

[5] = tested on: pathogenic bacteria causing bacterial angular leaf spot in cucumbers; assay: In vitro bactericidal activity, bacterial angular leaf spot in cucumbers; format: cell-based, pseudomonas; conditions: read-out: inhibitory rate; for inhibition at 1 ppm: dosage 1 ppm; for inhibition at 5 ppm: dosage 5 ppm
Procedure: as §1, §2

[6] = tested on: soft rot in Chinese cabbages; assay: whole plant or invertebrate; conditions: 48 h, read-out: efficacy against soft rot in Chinese cabbages
[7] = tested on: fruit blotch in watermelons; assay: whole plant or invertebrate; conditions: read-out: efficacy against fruit blotch in watermelons
[8] = tested on: stem rot in sweet potatoes; assay: whole plant or invertebrate; conditions: read-out: efficacy against stem rot in sweet potatoes
bacterial blight in rice = assay: whole plant or invertebrate; conditions: Oryza sativa, read-out: efficacy against bacterial blight in rice
[9] = tested on: pathogenic bacteria causing black rot in Chinese cabbages; assay: In vitro bactericidal activity, black rot in Chinese cabbages; format: cell-based, xanthomonas; conditions: Xanthomonas, read-out: inhibitory rate; for inhibition at 1 ppm: dosage 1 ppm; for inhibition at 5 ppm: dosage 5 ppm
Procedure: as §1, §2

[10] = tested on: pathogenic bacteria causing fruit blotch in watermelons; assay: In vitro bactericidal activity, fruit blotch in watermelons; format: cell-based, acidovorax; conditions: read-out: inhibitory rate; for inhibition at 1 ppm: dosage 1 ppm; for inhibition at 5 ppm: dosage 5 ppm
Procedure: as §1, §2

[11] = tested on: pathogenic bacteria causing stem rot in sweet potatoes; assay: In vitro bactericidal activity, stem rot in sweet potatoes; format: cell-based, dikia; conditions: read-out: inhibitory rate; for inhibition at 1 ppm: dosage 1 ppm; for inhibition at 5 ppm: dosage 5 ppm
Procedure: as §1, §2

[12] = tested on: pathogenic bacteria causing bacterial blight in rice; assay: whole plant or invertebrate; format: cell-based, xanthomonas; conditions: read-out: inhibitory rate
[13] = tested on: bacterial wilt in tobacco; assay: whole plant or invertebrate; conditions: Nicotiana tabacum, read-out: efficacy against bacterial wilt in tobacco

Compound	inhibition at 1 ppm [1] [%]	inhibition at 5 ppm [1] [%]	safety for plant growth (discoloration, necrosis, wilt, malformation) (cucumber seedlings)	inhibition at 1 ppm [2] [%]	inhibition at 5 ppm [2] [%]	pest or weed control at 5 ppm (black shank in potatoes) [%]	pest or weed control at 10 ppm (black shank in potatoes) [%]	inhibition at 1 ppm [3] [%]	inhibition at 5 ppm [3] [%]	inhibition at 1 ppm [4] [%]	inhibition at 5 ppm [4] [%]	inhibition at 1 ppm [5] [%]	inhibition at 5 ppm [5] [%]	pest or weed control at 5 ppm [6] [%]	pest or weed control at 10 ppm [6] [%]	pest or weed control at 5 ppm [7] [%]	pest or weed control at 10 ppm [7] [%]	pest or weed control at 5 ppm [8] [%]	pest or weed control at 10 ppm [8] [%]	pest or weed control at 5 ppm (bacterial blight in rice) [%]	also measured
O=C(OCCO)c1cn(C2CC2)c2cc(F)ccc2c1=O [Compound 194]	≥ 80	≥ 90	safe for plant growth	≥ 80	≥ 90	≥ 80	≥ 90	≥ 80	≥ 90	≥ 80	≥ 90	≥ 80	≥ 90	≥ 80	≥ 90	≥ 90	≥ 90	≥ 90	≥ 90	≥ 80	pest or weed control at 10 ppm (bacterial blight in rice): ≥ 90%; inhibition at 1 ppm [9]: ≥ 80%; inhibition at 5 ppm [9]: ≥ 90%; inhibition at 1 ppm [10]: ≥ 80%; inhibition at 5 ppm [10]: ≥ 90%; inhibition at 1 ppm [11]: ≥ 80%; inhibition at 5 ppm [11]: ≥ 90%; inhibition at 1 ppm [12]: ≥ 80%; inhibition at 5 ppm [12]: ≥ 90%; pest or weed control at 5 ppm [13]: ≥ 90%; pest or weed control at 10 ppm [13]: ≥ 90%
CCOc1cc2c(cc1F)c(=O)c(C(=O)OCCOC(C)C)cn2C1CC1 [Compound 300]	≥ 90	≥ 90	safe for plant growth	≥ 90	≥ 90	≥ 90	≥ 90	≥ 90	≥ 90	≥ 90	≥ 90	≥ 90	≥ 90	≥ 90	≥ 90	≥ 90	≥ 90	≥ 90	≥ 90	≥ 90	pest or weed control at 10 ppm (bacterial blight in rice): ≥ 90%; inhibition at 1 ppm [9]: ≥ 90%; inhibition at 5 ppm [9]: ≥ 90%; inhibition at 1 ppm [10]: ≥ 90%; inhibition at 5 ppm [10]: ≥ 90%; inhibition at 1 ppm [11]: ≥ 90%; inhibition at 5 ppm [11]: ≥ 90%; inhibition at 1 ppm [12]: ≥ 90%; inhibition at 5 ppm [12]: ≥ 90%; pest or weed control at 5 ppm [13]: ≥ 90%; pest or weed control at 10 ppm [13]: ≥ 90%
CCOCOC(=O)c1cn(C2CC2)c2cc(OCC)c(F)cc2c1=O [Compound 312]	≥ 90	≥ 90	safe for plant growth	≥ 90	≥ 90	≥ 90	≥ 90	≥ 90	≥ 90	≥ 90	≥ 90	≥ 90	≥ 90	≥ 90	≥ 90	≥ 90	≥ 90	≥ 90	≥ 90	≥ 80	pest or weed control at 10 ppm (bacterial blight in rice): ≥ 90%; inhibition at 1 ppm [9]: ≥ 90%; inhibition at 5 ppm [9]: ≥ 90%; inhibition at 1 ppm [10]: ≥ 90%; inhibition at 5 ppm [10]: ≥ 90%; inhibition at 1 ppm [11]: ≥ 90%; inhibition at 5 ppm [11]: ≥ 90%; inhibition at 1 ppm [12]: ≥ 80%; inhibition at 5 ppm [12]: ≥ 90%; pest or weed control at 5 ppm [13]: ≥ 90%; pest or weed control at 10 ppm [13]: ≥ 90%
COCCOC(=O)c1cn(C2CC2)c2cc(OC)ccc2c1=O [Compound 353]	≥ 80	≥ 90	safe for plant growth	≥ 80	≥ 90	≥ 80	≥ 90	≥ 80	≥ 90	≥ 80	≥ 90	≥ 80	≥ 90	≥ 80	≥ 90	≥ 90	≥ 90	≥ 90	≥ 90	≥ 80	pest or weed control at 10 ppm (bacterial blight in rice): ≥ 90%; inhibition at 1 ppm [9]: ≥ 80%; inhibition at 5 ppm [9]: ≥ 90%; inhibition at 1 ppm [10]: ≥ 80%; inhibition at 5 ppm [10]: ≥ 90%; inhibition at 1 ppm [11]: ≥ 80%; inhibition at 5 ppm [11]: ≥ 90%; inhibition at 1 ppm [12]: ≥ 80%; inhibition at 5 ppm [12]: ≥ 90%; pest or weed control at 5 ppm [13]: ≥ 90%; pest or weed control at 10 ppm [13]: ≥ 90%
O=C(OCCO)c1cn(C2CC2)c2cc(OCC(F)(F)F)ccc2c1=O [Compound 360]	≥ 80	≥ 90	safe for plant growth	≥ 80	≥ 90	≥ 80	≥ 90	≥ 80	≥ 90	≥ 80	≥ 90	≥ 80	≥ 90	≥ 80	≥ 90	≥ 90	≥ 90	≥ 90	≥ 90	≥ 80	pest or weed control at 10 ppm (bacterial blight in rice): ≥ 90%; inhibition at 1 ppm [9]: ≥ 80%; inhibition at 5 ppm [9]: ≥ 90%; inhibition at 1 ppm [10]: ≥ 80%; inhibition at 5 ppm [10]: ≥ 90%; inhibition at 1 ppm [11]: ≥ 80%; inhibition at 5 ppm [11]: ≥ 90%; inhibition at 1 ppm [12]: ≥ 80%; inhibition at 5 ppm [12]: ≥ 90%; pest or weed control at 5 ppm [13]: ≥ 90%; pest or weed control at 10 ppm [13]: ≥ 90%
CSc1cc2c(cc1F)c(=O)c(C(=O)OCCO)cn2C1CC1 [Compound 371]	≥ 90	≥ 90	safe for plant growth	≥ 90	≥ 90	≥ 90	≥ 90	≥ 90	≥ 90	≥ 90	≥ 90	≥ 90	≥ 90	≥ 90	≥ 90	≥ 90	≥ 90	≥ 90	≥ 90	≥ 90	pest or weed control at 10 ppm (bacterial blight in rice): ≥ 90%; inhibition at 1 ppm [9]: ≥ 90%; inhibition at 5 ppm [9]: ≥ 90%; inhibition at 1 ppm [10]: ≥ 90%; inhibition at 5 ppm [10]: ≥ 90%; inhibition at 1 ppm [11]: ≥ 90%; inhibition at 5 ppm [11]: ≥ 90%; inhibition at 1 ppm [12]: ≥ 90%; inhibition at 5 ppm [12]: ≥ 90%; pest or weed control at 5 ppm [13]: ≥ 90%; pest or weed control at 10 ppm [13]: ≥ 90%
